Results as given in US8158389B2, “Products and methods for in vivo secretion of monatin” (priority 2005, dated 2012).

System: E. coli BL21 DE3
Test: Monatin excretion with sodium decanoate, E. coli BL21 DE3 with or without cysH deletion
Assay type: cell-based, Escherichia coli
Conditions: 2.5 mM sodium decanoate, n = 2
Protocol: For inoculum, the E. coli strains BL21 DE3 aspC proA pET32 and BL21 DE3 ΔcysH: : aspCproA pET32 were grown overnight at 37° C. and 250 rpm in Luria-Bertani (“LB”) medium with 100 μg/mL ampicillin.
For the experimental treatments, Trp-1+glucose medium, a minimal medium that has been used for increased production of tryptophan in E. coli cells (Zeman et al. Folia Microbiol. 35:200-204, (1990)), was prepared as follows. To 800 mL nanopure water the following reagents were added: 2 g (NH4)2SO4 and 13.6 g KH2PO4. The pH was adjusted to 7.0, the volume was increased to 948 mL, and the medium was autoclaved. Following sterilization, 0.2 g MgSO4.7H2O, 0.01 g CaCl2.2H2O, and 0.5 mg FeSO4.7H2O were ad to the medium in a 1.8 mL volume followed by addition of 0.2 mL of Neidhardt's micronutrient solution. Neidhardt, F. C., et al., “Culture medium for Enterobacteria,” J. Bacteriol. 119:736-746 (1974). Neidhardt's medium includes (per liter): 0.18 g (NH4)6(MO7)24.4H2O, 1.24 g H3BO3, 0.36 g CoCl2.6H2O, 0.12 g CuSO4 (anhydrous), 0.8 g MnCl2.4H2O, and 0.14 g ZnSO4.7H2O. A 50% glucose solution was prepared separately and sterile-filtered. Forty mL of glucose solution and 10 mL of 1 M 3-Morpholinopropanesulfonic acid (“MOPS”) buffer were added to the base medium (950 mL) for a 1 L final volume.
Conditions for the treatments included 250 rpm agitation throughout and 37° C. up to induction, then, 30° C. following induction. At an OD600 nm between 0.44-0.52, induction of the plasmid genes was initiated. At induction, 1.0 mM IPTG, 0.5 mM pyridoxine hydrochloride, and 0.2 mL's of Balch's vitamins were added. Additions of 10 g/L L-tryptophan, 10 g/L sodium pyruvate, 0.04 mM pyridoxal-5′-phosphate (“PLP”) and 0.2% Tween® 20 (polyoxyethylene 20-sorbitan monolaurate) were made 3.0 hours following induction. At 3 hours after the initial feeding of pyruvate, another 10 g/L of sodium pyruvate was added to each flask. Some treatments included 2.5 mM sodium decanoate (or sterile, distilled water for the 0 mM decanoate treatment) addition at 3.0 hours following induction.

[1] = E. coli BL21 DE3 aspC proA pET32
[2] = E. coli BL21 DE3 ΔcysH::aspC proA pET32

CCCCCCCCCC(=O)[O-].[Na+] [sodium decanoate]
Monatin/dry cell wt., 24 hours [1]: 70.9 mg/g
Monatin/dry cell wt., 30 hours [1]: 75.0 mg/g
Monatin/dry cell wt., 48 hours [1]: 44.0 mg/g
Monatin/dry cell wt., 24 hours [2]: 115.0 mg/g
Monatin/dry cell wt., 30 hours [2]: 103.1 mg/g
Monatin/dry cell wt., 48 hours [2]: 73.3 mg/g
